Test results published in patent US12371454B2, “Cyclic peptide compound having Kras inhibitory action” (priority 2019, dated 2025).
Starred links: 1 amine or outer side, 2 acyl side, 3 side chain; linkers in the order of their positions; H or OH if unused. Positions of bridges follow the written chain, without caps; N, C: chain ends. Non-standard residues stand in square brackets, D forms with d. Residues, ends and D or L forms follow the SMILES beside them. *: point of attachment. hPhe(3-Cl-4-CF3) = N[C@@H](CCc1ccc(C(F)(F)F)c(Cl)c1)C(=O)O; NMePhe(4-CF3) = CN[C@@H](Cc1ccc(C(F)(F)F)cc1)C(=O)O; 3Oxa8azabicyclo(3.2.1)octane = C1CC2COCC1N2*; NMeAbu(4,4,4-F3) = CN[C@@H](CC(F)(F)F)C(=O)O; NMePhe(4-Cl) = CN[C@@H](Cc1ccc(Cl)cc1)C(=O)O; NMePhe(4-Me) = CN[C@@H](Cc1ccc(C)cc1)C(=O)O; NMePhe(4-F) = CN[C@@H](Cc1ccc(F)cc1)C(=O)O; hPhe(4-Cl) = N[C@@H](CCc1ccc(Cl)cc1)C(=O)O; NMedβ3hAla = C[C@H](CC(=O)[*:2])N(C)[*:1]; NMePhe(2-F) = CN[C@@H](Cc1ccccc1F)C(=O)O; NMeGly(cPent) = CN[C@H](C(=O)O)C1CCCC1; Phe(3-I) = N[C@@H](Cc1cccc(I)c1)C(=O)O; NMeGly(cBu) = CN[C@H](C(=O)O)C1CCC1; NMeY = CN[C@@H](Cc1ccc(O)cc1)C(=O)O; NMeCha = CN[C@@H](CC1CCCCC1)C(=O)O; Pro(4-oxo) = O=C1CN[C@H](C(=O)O)C1; NMeChg = CN[C@H](C(=O)O)C1CCCCC1; NMeD = CN[C@@H](CC(=O)O)C(=O)O; NMeL = CN[C@@H](CC(C)C)C(=O)O; NPrAla = CCCN[C@@H](C)C(=O)O; NMeV = CN[C@H](C(=O)O)C(C)C; NMeAbu = CC[C@H](NC)C(=O)O; Pip = O=C(O)[C@@H]1CCCCN1; Nle = CCCC[C@H](N)C(=O)O; Piperidide = C1CCN(*)CC1; Pyrrolidide = C1CCN(*)C1; Ac5c = NC1(C(=O)O)CCCC1; Aze = O=C(O)[C@@H]1CCN1; NEtG = CCNCC(=O)O; Sar = CNCC(=O)O

Experiments:
[1] = target: T1, Kras and SOS1 (biotin-tagged human Kras loaded with GDP, His-tagged human SOS1) (Homo sapiens, UniProt P01116, G12D); experiment: Protein-protein interaction inhibition between Kras and SOS1 (KrasGl2D-SOS PPI) using AlphaScreen; assay type: binding; settings: AlphaScreen; biotin-tagged human Kras loaded with GDP, His-tagged human SOS1; read-out: KRAS G12D-SOS PPI IC50
T1 construct: made in house; host or cells: E. coli (stated for Kras only)
T1 sequence (P01116 1-188 isoform P01116-2 G12D): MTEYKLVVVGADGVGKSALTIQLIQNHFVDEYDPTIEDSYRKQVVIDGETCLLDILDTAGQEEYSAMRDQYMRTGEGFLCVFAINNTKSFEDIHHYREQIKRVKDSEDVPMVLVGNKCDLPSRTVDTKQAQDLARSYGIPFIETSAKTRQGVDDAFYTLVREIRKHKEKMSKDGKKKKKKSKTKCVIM
Outline: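 Binding between SOS1 and Kras is detected as bead-proximity luminescence: illuminate Ni-conjugated donors (680 nm), collect 520-620 nm emission from streptavidin-conjugated acceptors; Kras carries biotin and GDP loaded after purification, SOS1 carries a His tag.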

[2] = system: Human pancreatic cancer cell line AsPC-1; experiment: Measurement of AsPC-1 cell growth inhibition (AsPC-1 CGI); assay type: cell-based; settings: 96 h
Outline: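 AsPC-1 cells in 15% FBS RPMI-1640 were exposed to test compound for 96 hours at 37° C, with CellTiter-Glo as endpoint.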

Row | Compound | IC50 [1] [nM] | IC50 [2] [nM]
1 | CCCC[C@@H]1NC(=O)[C@H](Cc2cccc(I)c2)NC(=O)CN(C)C(=O)[C@H](Cc2ccc(Cl)cc2)N(C)C(=O)CN(C)C(=O)CN(C)C(=O)[C@H]([C@@H](C)CC)NC(=O)[C@H](CC(C)C)N(C)C(=O)C[C@@H](C(=O)N2CCCCC2)N(C)C(=O)[C@H](CC(C)C)NC(=O)[C@H](Cc2ccccc2F)N(C)C1=O [Compound 1035] ([NMeL]I[Sar][Sar][NMePhe(4-Cl)][Sar][Phe(3-I)][Nle][NMePhe(2-F)]L[NMeD]-Piperidide; lactam N-11) | 11 | 100 to 500
2 | CC[C@H](C)[C@@H]1NC(=O)[C@H](CC(C)C)N(C)C(=O)C[C@@H](C(=O)N2CCCC2)N(C)C(=O)[C@H](C2CCCCC2)N(C)C(=O)C2(CCCC2)NC(=O)[C@@H]2CCCN2C(=O)[C@H](CCc2ccc(C(F)(F)F)c(Cl)c2)NC(=O)CN(C)C(=O)[C@H](Cc2ccc(C(F)(F)F)cc2)N(C)C(=O)CN(C)C(=O)CN(C)C1=O [Compound 1978] ([NMeL]I[Sar][Sar][NMePhe(4-CF3)][Sar][hPhe(3-Cl-4-CF3)]P[Ac5c][NMeChg][NMeD]-Pyrrolidide; lactam N-11) | 0.51 | 20 to 50
3 | CC[C@H](C)[C@@H]1NC(=O)[C@H](CC(C)C)N(C)C(=O)C[C@@H](C)N(C)C(=O)[C@H](C2CCCCC2)N(C)C(=O)C2(CCCC2)NC(=O)[C@@H]2CCCN2C(=O)[C@H](CCc2ccc(C(F)(F)F)c(Cl)c2)NC(=O)CN(C)C(=O)[C@H](CC2CCCCC2)N(C)C(=O)CN(C)C(=O)CN(C)C1=O [Compound 629] (cyclo([Ac5c][NMeChg][NMedβ3hAla][NMeL]I[Sar][Sar][NMeCha][Sar][hPhe(3-Cl-4-CF3)]P)) | 10 | 100 to 500
4 | CC[C@H](C)[C@@H]1NC(=O)[C@H](CC(C)C)N(C)C(=O)C[C@@H](C)N(C)C(=O)[C@H](C2CCCC2)N(C)C(=O)C2(CCCC2)NC(=O)[C@@H]2CCCN2C(=O)[C@H](CCc2ccc(C(F)(F)F)c(Cl)c2)NC(=O)CN(C)C(=O)[C@H](CC2CCCCC2)N(C)C(=O)CN(C)C(=O)CN(C)C1=O [Compound 420] (cyclo([Ac5c][NMeGly(cPent)][NMedβ3hAla][NMeL]I[Sar][Sar][NMeCha][Sar][hPhe(3-Cl-4-CF3)]P)) | 3.4 | 50 to 100
5 | CC[C@H](C)[C@@H]1NC(=O)[C@H](CC(C)C)N(C)C(=O)C[C@@H](C(=O)N2CCCCC2)N(C)C(=O)[C@H](C2CCCCC2)N(C)C(=O)C2(CCCC2)NC(=O)[C@@H]2CCCN2C(=O)[C@H](CCc2ccc(C(F)(F)F)c(Cl)c2)NC(=O)CN(C)C(=O)[C@H](CC2CCCCC2)N(C)C(=O)CN(C)C(=O)CN(CC)C1=O [Compound 1255] ([NMeL]I[NEtG][Sar][NMeCha][Sar][hPhe(3-Cl-4-CF3)]P[Ac5c][NMeChg][NMeD]-Piperidide; lactam N-11) | 1.4 | 100 to 500
6 | CC[C@H](C)[C@@H]1NC(=O)[C@H](CC(C)C)N(C)C(=O)C[C@@H](C)N(C)C(=O)[C@H](C(C)C)N(C)C(=O)C2(CCCC2)NC(=O)[C@@H]2CCCN2C(=O)[C@H](CCc2ccc(C(F)(F)F)c(Cl)c2)NC(=O)CN(C)C(=O)[C@H](Cc2ccc(F)cc2)N(C)C(=O)CN(C)C(=O)CN(C)C1=O [Compound 1571] (cyclo([Ac5c][NMeV][NMedβ3hAla][NMeL]I[Sar][Sar][NMePhe(4-F)][Sar][hPhe(3-Cl-4-CF3)]P)) | 4.8 | 50 to 100
7 | CC[C@H](C)[C@@H]1NC(=O)[C@H](CC)N(C)C(=O)C[C@@H](C(=O)N2CCCC2)N(C)C(=O)[C@H](C2CCCCC2)N(C)C(=O)C2(CCCC2)NC(=O)[C@@H]2CCCN2C(=O)[C@H](CCc2ccc(C(F)(F)F)c(Cl)c2)NC(=O)CN(C)C(=O)[C@H](CC2CCCCC2)N(C)C(=O)CN(C)C(=O)CN(C)C1=O [Compound 1958] ([NMeAbu]I[Sar][Sar][NMeCha][Sar][hPhe(3-Cl-4-CF3)]P[Ac5c][NMeChg][NMeD]-Pyrrolidide; lactam N-11) | 0.45 | 20 to 50
8 | CC[C@H](C)[C@@H]1NC(=O)[C@H](CC(C)C)N(C)C(=O)C[C@@H](C(=O)N2CCCCC2)N(C)C(=O)[C@H](C2CCCCC2)N(C)C(=O)C2(CCCC2)NC(=O)[C@@H]2CC(=O)CN2C(=O)[C@H](CCc2ccc(C(F)(F)F)c(Cl)c2)NC(=O)CN(C)C(=O)[C@H](CC2CCCCC2)N(C)C(=O)CN(C)C(=O)CN(C)C1=O [Compound 1022] ([NMeL]I[Sar][Sar][NMeCha][Sar][hPhe(3-Cl-4-CF3)][Pro(4-oxo)][Ac5c][NMeChg][NMeD]-Piperidide; lactam N-11) | 0.42 | 100 to 500
9 | CC[C@H](C)[C@@H]1NC(=O)[C@H](CC(C)C)N(C)C(=O)C[C@@H](C)N(C)C(=O)[C@H](C(C)C)N(C)C(=O)C2(CCCC2)NC(=O)[C@@H]2CCCN2C(=O)[C@H](CCc2ccc(C(F)(F)F)c(Cl)c2)NC(=O)CN(C)C(=O)[C@H](Cc2ccc(OC)cc2)N(C)C(=O)CN(C)C(=O)CN(C)C1=O [Compound 1551] (cyclo([Ac5c][NMeV][NMedβ3hAla][NMeL]I[Sar][Sar][NMeY](Me)[Sar][hPhe(3-Cl-4-CF3)]P)) | 4.9 | 50 to 100
10 | CC[C@H](C)[C@@H]1NC(=O)[C@H](C2CCC2)N(C)C(=O)C[C@@H](C(=O)N2CCCC2)N(C)C(=O)[C@H](C2CCCCC2)N(C)C(=O)C2(CCCC2)NC(=O)[C@@H]2CCCN2C(=O)[C@H](CCc2ccc(C(F)(F)F)c(Cl)c2)NC(=O)CN(C)C(=O)[C@H](Cc2ccc(C)cc2)N(C)C(=O)CN(C)C(=O)CN(C)C1=O [Compound 339] ([NMeGly(cBu)]I[Sar][Sar][NMePhe(4-Me)][Sar][hPhe(3-Cl-4-CF3)]P[Ac5c][NMeChg][NMeD]-Pyrrolidide; lactam N-11) | 0.38 | 20 to 50
11 | CC[C@H](C)[C@@H]1NC(=O)[C@H](CC(F)(F)F)N(C)C(=O)C[C@@H](C(=O)N2CCCC2)N(C)C(=O)[C@H](C2CCCCC2)N(C)C(=O)C2(CCCC2)NC(=O)[C@@H]2CCCN2C(=O)[C@H](CCc2ccc(C(F)(F)F)c(Cl)c2)NC(=O)CN(C)C(=O)[C@H](CC2CCCCC2)N(C)C(=O)CN(C)C(=O)CN(C)C1=O [Compound 647] ([NMeAbu(4,4,4-F3)]I[Sar][Sar][NMeCha][Sar][hPhe(3-Cl-4-CF3)]P[Ac5c][NMeChg][NMeD]-Pyrrolidide; lactam N-11) | 0.58 | 20 to 50
12 | CC[C@H](C)[C@@H]1NC(=O)[C@H](CC(C)C)N(C)C(=O)C[C@@H](C(=O)N2CCCCC2)N(C)C(=O)[C@H](C(C)C)N(C)C(=O)C2(CCCC2)NC(=O)[C@@H]2CCCN2C(=O)[C@H](CCc2ccc(C(F)(F)F)c(Cl)c2)NC(=O)CN(C)C(=O)[C@H](CC2CCCCC2)N(C)C(=O)[C@@H]2CCN2C(=O)[C@@H]2CCCCN2C1=O [Compound 988] ([NMeL]I[Pip][Aze][NMeCha][Sar][hPhe(3-Cl-4-CF3)]P[Ac5c][NMeV][NMeD]-Piperidide; lactam N-11) | 12 | 100 to 500
13 | CC[C@H](C)[C@@H]1NC(=O)[C@H](CC(C)C)N(C)C(=O)C[C@@H](C(=O)N2CCCCC2)N(C)C(=O)[C@H](C2CCCC2)N(C)C(=O)C2(CCCC2)NC(=O)[C@@H]2CCCN2C(=O)[C@H](CCc2ccc(C(F)(F)F)c(Cl)c2)NC(=O)CN(C)C(=O)[C@H](Cc2ccc(C)cc2)N(C)C(=O)CN(C)C(=O)CN(C)C1=O [Compound 1850] ([NMeL]I[Sar][Sar][NMePhe(4-Me)][Sar][hPhe(3-Cl-4-CF3)]P[Ac5c][NMeGly(cPent)][NMeD]-Piperidide; lactam N-11) | 0.6 | 20 to 50
14 | CCCN1C(=O)C[C@@H](C)N(C)C(=O)[C@H](C(C)C)N(C)C(=O)C2(CCCC2)NC(=O)[C@@H]2CCCN2C(=O)[C@H](CCc2ccc(C(F)(F)F)c(Cl)c2)NC(=O)CN(C)C(=O)[C@H](CC2CCCCC2)N(C)C(=O)CN(C)C(=O)CN(C)C(=O)[C@H]([C@@H](C)CC)NC(=O)[C@@H]1C [Compound 824] (cyclo([Ac5c][NMeV][NMedβ3hAla][NPrAla]I[Sar][Sar][NMeCha][Sar][hPhe(3-Cl-4-CF3)]P)) | 5.6 | 100 to 500
15 | CC[C@H](C)[C@@H]1NC(=O)[C@H](CC(C)C)N(C)C(=O)C[C@@H](C(=O)N2CCCC2)N(C)C(=O)[C@H](C2CCCC2)N(C)C(=O)C2(CCCC2)NC(=O)[C@@H]2CCCN2C(=O)[C@H](CCc2ccc(C(F)(F)F)c(Cl)c2)NC(=O)CN(C)C(=O)[C@H](Cc2ccc(C)cc2)N(C)C(=O)CN(C)C(=O)CN(C)C1=O [Compound 1761] ([NMeL]I[Sar][Sar][NMePhe(4-Me)][Sar][hPhe(3-Cl-4-CF3)]P[Ac5c][NMeGly(cPent)][NMeD]-Pyrrolidide; lactam N-11) | 0.41 | 20 to 50
16 | CC[C@H](C)[C@@H]1NC(=O)[C@H](CC(C)C)N(C)C(=O)C[C@@H](C(=O)N2C3CCC2COC3)N(C)C(=O)[C@H](C2CCCCC2)N(C)C(=O)C2(CCCC2)NC(=O)[C@@H]2CCCN2C(=O)[C@H](CCc2ccc(Cl)cc2)NC(=O)CN(C)C(=O)[C@H](CC2CCCCC2)N(C)C(=O)CN(C)C(=O)CN(C)C1=O [Compound 1950] ([NMeL]I[Sar][Sar][NMeCha][Sar][hPhe(4-Cl)]P[Ac5c][NMeChg][NMeD]-{3Oxa8azabicyclo(3.2.1)octane}; lactam N-11) | 2.8 | 20 to 50
